From US11339203B2, “Antitumor peptide and use thereof” (TOAGOSEI CO., LTD., priority 2018, dated 2022)
Where two headings read alike, the source gives them in different places. Where no end group is shown, it is not given here.

Key:
[1] = test system: human alveolar epithelial cell carcinoma cell line (A549); format: cell-based; details: 48 h
Protocol: (§1) CAKI2 cells were cultured and adjusted to cell count of about 5×10^3 cells per single well of 96-well plate. The amount of medium at this time was made to be 100 μL per well. Next, the 96-well plate was arranged in a CO2 incubator and incubated for about 1 day (21 hours to 24 hours) under conditions of 37° C. and 5% CO2. Subsequently, peptide-containing test media were respectively prepared for each concentration so that the concentration of each sample peptide targeted for evaluation was 12.5 μM and 25 μM followed by supplying to the wells in which the cells targeted for evaluation were cultured (namely, the wells following the above-mentioned incubation) so that the amount of media was 90 μL per well. The 96-well plate was then returned to CO2 incubator followed by incubating for 48 hours under conditions of 37° C. and 5% CO2. The number of wells (n) at each concentration in each peptide addition test group was set to 3. Thus, the values of the results indicated in the following table are the average values of the results respectively obtained for 3 test wells. Cell viability (%) was determined in the manner described below. Following completion of incubation for 48 hours as described above, the medium in each well was replaced with 100 μL of fresh medium not containing peptide followed by further adding a reagent for measuring cell proliferation in the form of “Cell Counting Kit-8” (Dojindo Laboratories) containing “water-soluble tetrazolium salt (WST-8)” as a coloring reagent at 10 μL per well. Subsequently, the 96-well plate was again returned to CO2 incubator and incubated for 1.5 hours to 2 hours under conditions of 37° C. and 5% CO2. Following completion of incubation, cell viability (%) was evaluated using a colorimetric method consisting of recovering the cell culture liquid containing the above-mentioned reagent together with measuring absorbance at wavelength of 450 nm based on reduction of tetrazolium salt (value corrected for absorbance at a wavelength of 650 nm: A450 to A650). More specifically, the cell viability (%) of each test cell line was calculated from the measured absorbance as a relative value based on cell viability of 100% for the measured value (measured absorbance) of the comparison test group that underwent incubation for 48 hours as described above in only medium not containing peptide. Antitumor activity was evaluated for Sample 2 in above-mentioned Test Example 1 targeted at multiple types of human-derived cultured tumor cells. […]

[2] = test system: human non-small cell lung cancer cell line (NCI-H2444); format: cell-based; details: 48 h
Protocol: as §1

Substance: FIGNLALSDLLAGVAYTANLLLKKRTLRKNDRKKR-NH2 [Sample 2]
- Cell Viability (%) ([1]; 12.5 μM): 25.4%
- Cell Viability (%) ([1]; 25 μM): 1.4%
- Cell Viability (%) ([2]; 12.5 μM): 11%
- Cell Viability (%) ([2]; 25 μM): 0.6%
